Read-outs that look alike come from different tables or passages of the source.
Legend:
[1] = target: T1, Human Indoleamine 2,3-dioxygenase (IDO) (Homo sapiens, UniProt P14902); experiment: Human IDO enzymatic assay (kynurenine level); assay type: biochemical; conditions: 6 nM IDO, 10 μM L-Trp; geometric mean; read-out: IDO1 GMean: IC50 (μM) (Biochemical Assay)
T1 construct: His tag (N); made in house; host or cells: E. coli
Outline: (§1)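 Compound is mixed with His-tagged enzyme from E. coli in pH 6.5 phosphate buffer containing ascorbate, methylene blue and catalase, at room temperature. IDO uses 6 nM enzyme and 10 μM Trp for 20 min. TDO uses 1 nM enzyme and 350 μM Trp for 70 min. TCA stops the reaction, and IC50 is derived from kynurenine levels.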

[2] = target: T2, Human Tryptophan 2,3-dioxygenase (TDO) (Homo sapiens, UniProt P48775); experiment: Human TDO enzymatic assay (kynurenine level); assay type: biochemical; conditions: 1 nM TDO, 350 μM L-Trp; geometric mean; read-out: TDO GMean: IC50 (μM) (Biochemical Assay)
T2 construct: His tag (N); made in house; host or cells: E. coli
T2 sequence (P48775 whole entry): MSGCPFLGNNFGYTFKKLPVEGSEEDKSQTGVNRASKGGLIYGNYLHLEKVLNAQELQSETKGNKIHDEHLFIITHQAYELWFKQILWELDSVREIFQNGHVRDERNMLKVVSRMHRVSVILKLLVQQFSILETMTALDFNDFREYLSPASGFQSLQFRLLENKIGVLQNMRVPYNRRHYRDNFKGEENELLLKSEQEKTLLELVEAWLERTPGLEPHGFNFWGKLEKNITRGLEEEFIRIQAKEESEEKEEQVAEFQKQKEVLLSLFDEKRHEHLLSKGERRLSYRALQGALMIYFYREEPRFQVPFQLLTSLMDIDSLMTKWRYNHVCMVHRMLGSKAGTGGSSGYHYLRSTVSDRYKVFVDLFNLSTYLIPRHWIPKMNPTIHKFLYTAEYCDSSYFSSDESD
Outline: as §1

[3] = target: T3, human IDO (IDO1-expressing HEK293 cells) (Homo sapiens, UniProt P14902); experiment: Cell based kynurenine assay, IDO1-expressing HEK293 cell clones; conditions: IDO1-expressing HEK293 cells, geometric mean, read-out: HEK293 IDO1 Kynurenine GMean IC50 (μM) (Cellular Assay)
T3 construct: expressed in transfected cells
T3 sequence (P14902 whole entry): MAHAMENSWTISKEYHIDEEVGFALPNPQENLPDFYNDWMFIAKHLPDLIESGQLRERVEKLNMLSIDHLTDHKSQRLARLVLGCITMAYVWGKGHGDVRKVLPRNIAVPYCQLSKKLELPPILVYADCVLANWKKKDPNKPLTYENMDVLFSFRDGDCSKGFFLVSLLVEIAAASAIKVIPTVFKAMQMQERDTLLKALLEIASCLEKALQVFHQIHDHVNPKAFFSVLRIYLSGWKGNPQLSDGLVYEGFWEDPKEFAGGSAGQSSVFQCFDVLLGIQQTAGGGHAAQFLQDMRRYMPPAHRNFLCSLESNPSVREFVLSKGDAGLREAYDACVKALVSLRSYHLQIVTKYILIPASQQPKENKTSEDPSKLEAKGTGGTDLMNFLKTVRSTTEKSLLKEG
Outline: (§2)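 Cellular IDO1 and TDO activity is followed as kynurenine released by stably transfected HEK293 clones over 24 h with test compound. Controls are DMSO-treated cells and media alone.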

[4] = target: T4, human TDO (TDO-expressing HEK293 cells) (Homo sapiens, UniProt P48775); experiment: Cell based kynurenine assay, TDO-expressing HEK293 cell clones; conditions: TDO-expressing HEK293 cells, geometric mean, read-out: HEK293 TDO Kynurenine GMean IC50 (μM) (Cellular Assay)
T4 construct: expressed in transfected cells
T4 sequence (P48775 whole entry): as the sequence (P48775 whole entry) above
Outline: as §2

T1 sequence (P14902 whole entry): as the sequence (P14902 whole entry) above

Row | SMILES | IC50 [1] [µM] | IC50 [2] [µM] | IC50 ([3]; 24 hours incubation) [µM] | IC50 ([4]; 24 hours incubation) [µM] | IC50 ([3]; 24 hours) [µM] | IC50 ([4]; 24 hours) [µM]
1 | CC1(C)CC(O)(c2cc(Cl)cc3cn[nH]c23)CCN1S(C)(=O)=O (stereo not shown) [Compound P-0046, 4-(5-chloro-1H-indazol-7-yl)-2,2-dimethyl-1-(methylsulfonyl)piperidin-4-ol] | 0.0001 to 10 | 0.0001 to 10 | > 10 | > 10 |  | 
2 | [2H]C(O)(c1cc(Cl)cc2cn[nH]c12)C(C)(C)C1CCOCC1 (stereo not drawn) [Compound P-0244, 1-(5-chloro-1H-indazol-7-yl)-2-methyl-2-(tetrahydro-2H-pyran-4-yl)propan-1-d-1-ol] | 0.0001 to 10 | 0.0001 to 10 | 0.0001 to 10 | 0.0001 to 10 |  | 
3 | CNC(=O)N1CCC(C2(C(O)c3cc(Cl)cc4cn[nH]c34)CC2)CC1 (stereo not shown) [Compound P-0134, 4-(1-((5-chloro-1H-indazol-7-yl)(hydroxy)methyl)cyclopropyl)-N-methylpiperidine-1-carboxamide] | 0.0001 to 10 | 0.0001 to 10 | 0.0001 to 10 | 0.0001 to 10 |  | 
4 | CC(C)(C1CCN(C(=O)C2CC2)CC1)[C@H](O)c1c(F)c(Cl)cc2cn[nH]c12 [Compound P-0504, (S)-(4-(1-(5-chloro-6-fluoro-1H-indazol-7-yl)-1-hydroxy-2-methylpropan-2-yl)piperidin-1-yl)(cyclopropyl) methanone] | 0.0001 to 10 | 0.0001 to 10 |  |  | 0.0001 to 10 | 0.0001 to 10
5 | OC1(c2cc(Cl)cc3cn[nH]c23)CC2(CCCC2)C1 [Compound P-0048, 2-(5-chloro-1H-indazol-7-yl)spiro[3.4]octan-2-ol] | 0.0001 to 10 | 0.0001 to 10 | 0.0001 to 10 | 0.0001 to 10 |  | 
6 | CC(C)(C1CCN(C(=O)Nc2ccccc2)CC1)[C@@H](O)c1cc(Cl)cc2cn[nH]c12 [Compound P-0431, (R)-4-(1-(5-chloro-1H-indazol-7-yl)-1-hydroxy-2-methylpropan-2-yl)-N-phenylpiperidine-1-carboxamide] | 10 to 100 | 0.0001 to 10 |  |  | 0.0001 to 10 | 0.0001 to 10
7 | CC(C)(C1CCN(C(=O)Nc2cccc(F)c2)CC1)[C@@H](O)c1cc(Cl)cc2cn[nH]c12 [Compound P-0434, (R)-4-(1-(5-chloro-1H-indazol-7-yl)-1-hydroxy-2-methylpropan-2-yl)-N-(3-fluorophenyl) piperidine-1-carboxamide] | 10 to 100 | 0.0001 to 10 |  |  | 0.0001 to 10 | 0.0001 to 10
8 | CC(C)(C1CCN(C(=O)Nc2ccccc2C#N)CC1)C(O)c1cc(Cl)cc2cn[nH]c12 (stereo not shown) [Compound P-0180, 4-(1-(5-chloro-1H-indazol-7-yl)-1-hydroxy-2-methylpropan-2-yl)-N-(2-cyanophenyl)piperidine-1-carboxamide] | 0.0001 to 10 | 0.0001 to 10 | 0.0001 to 10 | 0.0001 to 10 |  | 
9 | COC12CCC(C(O)c3cc(Cl)cc4cn[nH]c34)(CC1)CC2 (stereo not shown) [Compound P-0136, (5-chloro-1H-indazol-7-yl)(4-methoxybicyclo[2.2.2]octan-1-yl)methanol] | 0.0001 to 10 | 0.0001 to 10 | 0.0001 to 10 | 0.0001 to 10 |  | 
10 | CC(C)(C1CCN(C(=O)c2ccccc2Cl)CC1)C(O)c1cc(Cl)cc2cn[nH]c12 (stereo not shown) [Compound P-0368, (4-(1-(5-chloro-1H-indazol-7-yl)-1-hydroxy-2-methylpropan-2-yl)piperidin-1-yl)(2-chlorophenyl) methanone] | 0.0001 to 10 | 0.0001 to 10 | 0.0001 to 10 | 0.0001 to 10 |  | 
11 | CS(=O)(=O)N1CCC(C2(C(O)c3c(F)c(Cl)cc4cn[nH]c34)CC2)CC1 (stereo not shown) [Compound P-0165, (5-chloro-6-fluoro-1H-indazol-7-yl)(1-(1-(methylsulfonyl)piperidin-4-yl)cyclopropyl)methanol] | 0.0001 to 10 | 0.0001 to 10 | 0.0001 to 10 | 0.0001 to 10 |  | 
12 | Cc1cc(N2CC3CCC(C2)N3S(C)(=O)=O)c2[nH]ncc2c1 [Compound P-0094, 5-methyl-7-(8-(methylsulfonyl)-3,8-diazabicyclo[3.2.1]octan-3-yl)-1H-indazole] | 0.0001 to 10 | 0.0001 to 10 | > 10 | 0.0001 to 10 |  | 
13 | CC(C)(C1CCN(C(=O)Nc2ccc(F)cc2)CC1)[C@H](O)c1cc(Cl)cc2cn[nH]c12 [Compound P-0344, (S)-4-(1-(5-chloro-1H-indazol-7-yl)-1-hydroxy-2-methylpropan-2-yl)-N-(4-fluorophenyl)piperidine-1-carboxamide] | 0.0001 to 10 | 0.0001 to 10 | 0.0001 to 10 | 0.0001 to 10 |  | 
14 | CS(=O)(=O)N1C2CCC1CN(c1cc(C(F)(F)F)cc3cn[nH]c13)C2 [Compound P-0095, 7-(8-(methylsulfonyl)-3,8-diazabicyclo[3.2.1]octan-3-yl)-5-(trifluoromethyl)-1H-indazole] | 0.0001 to 10 | 0.0001 to 10 | 0.0001 to 10 | 0.0001 to 10 |  | 
15 | CC(C)(C1CCN(C(=O)c2ccc(N3CCOCC3)nc2)CC1)C(O)c1cc(Cl)cc2cn[nH]c12 (stereo not shown) [Compound P-0367, (4-(1-(5-chloro-1H-indazol-7-yl)-1-hydroxy-2-methylpropan-2-yl)piperidin-1-yl)(6-morpholinopyridin-3-yl)methanone] | 0.0001 to 10 | 0.0001 to 10 | 0.0001 to 10 | 0.0001 to 10 |  | 

Results, then the molecule that gave them:

Row | IC50 [1] [µM] | IC50 [2] [µM] | IC50 ([3]; 24 hours incubation) [µM] | IC50 ([4]; 24 hours incubation) [µM] | IC50 ([3]; 24 hours) [µM] | IC50 ([4]; 24 hours) [µM] | SMILES
16 | 0.0001 to 10 | 0.0001 to 10 | 0.0001 to 10 | 0.0001 to 10 |  |  | CCC(=O)N1CCC(C(F)(F)C(O)c2cc(Cl)cc3cn[nH]c23)CC1 (stereo not drawn) [Compound P-0147, 1-(4-(2-(5-chloro-1H-indazol-7-yl)-1,1-difluoro-2-hydroxyethyl)piperidin-1-yl)propan-l-one]
17 | 0.0001 to 10 | 0.0001 to 10 |  |  | 0.0001 to 10 | 0.0001 to 10 | CC(C)(C1CCN(C(=O)Cc2ccc(F)c(Cl)c2)CC1)[C@H](O)c1cc(Cl)cc2cn[nH]c12 [Compound P-0519, (S)-1-(4-(1-(5-chloro-1H-indazol-7-yl)-1-hydroxy-2-methylpropan-2-yl)piperidin-1-yl)-2-(3-chloro-4-fluorophenyl)ethan-1-one]
18 | 0.0001 to 10 | 0.0001 to 10 | 0.0001 to 10 | 0.0001 to 10 |  |  | NS(=O)(=O)N1CCC(C(F)(F)C(O)c2cc(Cl)cc3cn[nH]c23)CC1 (stereo not shown) [Compound P-0345, 4-(2-(5-chloro-1H-indazol-7-yl)-1,1-difluoro-2-hydroxyethyl) piperidine-1-sulfonamide]
19 | 0.0001 to 10 | 0.0001 to 10 |  |  | 0.0001 to 10 | 0.0001 to 10 | COC(=O)N1CCC(C(C)(C)[C@H](O)c2cc(Cl)cc3cn[nH]c23)CC1 [Compound P-0540, methyl (S)-4-(1-(5-chloro-1H-indazol-7-yl)-1-hydroxy-2-methylpropan-2-yl)piperidine-1-carboxylate]
20 | 0.0001 to 10 | 0.0001 to 10 | 0.0001 to 10 | 0.0001 to 10 |  |  | O=C(C1CC1)N1CCC(C(F)(F)C(O)c2c(F)c(Cl)cc3cn[nH]c23)CC1 (stereo not shown) [Compound P-0343, (4-(2-(5-chloro-6-fluoro-1H-indazol-7-yl)-1,1-difluoro-2-hydroxyethyl)piperidin-1-yl)(cyclopropyl) methanone]
21 | 0.0001 to 10 | 0.0001 to 10 |  |  | 0.0001 to 10 | 0.0001 to 10 | CC(C)(C1CCN(C(=O)c2ccc(Cl)cn2)CC1)[C@H](O)c1cc(Cl)cc2cn[nH]c12 [Compound P-0548, (S)-(4-(1-(5-chloro-1H-indazol-7-yl)-1-hydroxy-2-methylpropan-2-yl)piperidin-1-yl)(5-chloropyridin-2-yl)methanone]
22 | 0.0001 to 10 | 0.0001 to 10 | 0.0001 to 10 | 0.0001 to 10 |  |  | CC(C)(C1CCN(C(=O)Nc2ccccc2C(F)(F)F)CC1)C(O)c1cc(Cl)cc2cn[nH]c12 (stereo not shown) [Compound P-0401, 4-(1-(5-chloro-1H-indazol-7-yl)-1-hydroxy-2-methylpropan-2-yl)-N-(2-(trifluoromethyl)phenyl)piperidine-1-carboxamide]
23 | 0.0001 to 10 | 0.0001 to 10 | 0.0001 to 10 | 0.0001 to 10 |  |  | CC(C)(C1CCN(C(=O)N2CCOCC2)CC1)C(O)c1cc(Cl)cc2cn[nH]c12 (stereo not shown) [Compound P-0391, (4-(1-(5-chloro-1H-indazol-7-yl)-1-hydroxy-2-methylpropan-2-yl)piperidin-1-yl)(morpholino) methanone]
24 | 0.0001 to 10 | 0.0001 to 10 | 0.0001 to 10 | 0.0001 to 10 |  |  | CC(C)(C1CCN(C(=O)C2CC2)CC1)C(O)c1cc(Cl)cc2cn[nH]c12 (stereo not shown) [Compound P-0312, (4-(1-(5-chloro-1H-indazol-7-yl)-1-hydroxy-2-methylpropan-2-yl)piperidin-1-yl)(cyclopropyl) methanone]
25 | 0.0001 to 10 | 0.0001 to 10 | 0.0001 to 10 | 0.0001 to 10 |  |  | CCCS(=O)(=O)N1CCC(C(C)(C)C(O)c2cc(Cl)cc3cn[nH]c23)CC1 (stereo not shown) [Compound P-0305, 1-(5-chloro-1H-indazol-7-yl)-2-methyl-2-(1-(propylsulfonyl)piperidin-4-yl)propan-1-ol]
